Measurements taken from article PMC5130025, “A new antiproliferative noscapine analogue: chemical synthesis and biological evaluation” (Oncotarget, 2016).

Tests used:
[1] = test system: SKBR-3 breast cancer cell line; experiment: MTT assay, SKBR-3; format: cell-based; details: Homo sapiens, SK-BR-3; SKBR-3, 24 h treatment (21 h + 3 h MTT); read-out: IC50, cell viability (MTT)
Procedure: (§1) The human breast cancer cell lines SKBR-3 and paclitaxel-resistant SKBR-3 were kindly provided by Marc St. George (University of Alberta, Canada). Both cell lines were grown in RPMI 1640 medium (GIBCO) with 10% fetal calf serum and 1 mM L-glutamine 1% penicillin/streptomycin mixture under a humidified atmosphere containing 5% CO2. Addition of 16.65 nM paclitaxel to the paclitaxel-resistant cell line is mandatory to keep the acquired resistance at the same efficiency level.
(§2) The human breast cancer cell lines SKBR-3 and paclitaxel-resistant SKBR-3 (1 × 10^4 cells per well) were seeded into 96-well plates. […] After 21 h incubation, 50 μL of MTT (1 mg/mL) solution was added and the plates were incubated for an additional 3 h. After centrifugation, supernatant was removed from each well and […] of dimethyl sulfoxide (DMSO) was added to dissolve the insoluble formazan crystals. The absorbance was measured at 570 nm and 690 nm subtracted as a background, using microplate reader. The data was plotted using GraphPad Prism 5.0 software. IC50 and statistical analysis (t-test) were calculated using the same software.

[2] = test system: tubulin; experiment: Microtubule assembly assay (turbidity); format: biochemical; details: 10 μM compound, tubulin 3 mg/mL, 37°C, turbidity at 340 nm
Procedure: The turbidity was recorded on 96-half area well plates by microplate reader at 340 nm as an indicator for microtubules formation. […] Tubulin at a concentration of 3mg/mL in tubulin buffer (80 mM PIPES pH 6.9, 2 mM MgCl2, 0.5 mM EGTA, 1 mM GTP, 10.2% glycerol) was kept at 4°C before being added to the wells and shifting to 37°C. The absorbance was measured using the kinetic absorbance mode. DMSO solutions of paclitaxel and colchicine (10 μM) were used as controls.

[3] = test system: paclitaxel-resistant SKBR-3 breast cancer cell line; experiment: MTT assay, paclitaxel-resistant SKBR-3; format: cell-based; details: Homo sapiens, SK-BR-3, paclitaxel-resistant SKBR-3, 24 h treatment (21 h + 3 h MTT); read-out: IC50, cell viability (MTT)
Procedure: as §1, §2

[4] = molecular target: T1, αI,βI-tubulin (Homo sapiens, UniProt P07437+Q71U36); experiment: Tryptophan fluorescence quenching binding assay, recombinant αI,βI-tubulin heterodimer; details: dissociation constant, calculated
T1 construct: made in house; host or cells: E. coli BL21 (DE3)
T1 sequence (Q71U36 whole entry): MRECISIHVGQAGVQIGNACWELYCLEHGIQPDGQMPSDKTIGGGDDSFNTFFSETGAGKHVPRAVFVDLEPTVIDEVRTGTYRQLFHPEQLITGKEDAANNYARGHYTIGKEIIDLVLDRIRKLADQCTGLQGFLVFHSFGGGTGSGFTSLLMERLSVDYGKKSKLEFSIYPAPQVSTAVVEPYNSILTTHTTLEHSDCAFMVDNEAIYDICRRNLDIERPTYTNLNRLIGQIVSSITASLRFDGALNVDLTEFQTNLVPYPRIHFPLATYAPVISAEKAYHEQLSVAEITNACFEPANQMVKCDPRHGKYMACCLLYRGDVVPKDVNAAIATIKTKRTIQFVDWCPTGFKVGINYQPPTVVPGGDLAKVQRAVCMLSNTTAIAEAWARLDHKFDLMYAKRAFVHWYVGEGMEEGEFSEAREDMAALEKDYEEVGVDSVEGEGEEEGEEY
T1 sequence (P07437 whole entry): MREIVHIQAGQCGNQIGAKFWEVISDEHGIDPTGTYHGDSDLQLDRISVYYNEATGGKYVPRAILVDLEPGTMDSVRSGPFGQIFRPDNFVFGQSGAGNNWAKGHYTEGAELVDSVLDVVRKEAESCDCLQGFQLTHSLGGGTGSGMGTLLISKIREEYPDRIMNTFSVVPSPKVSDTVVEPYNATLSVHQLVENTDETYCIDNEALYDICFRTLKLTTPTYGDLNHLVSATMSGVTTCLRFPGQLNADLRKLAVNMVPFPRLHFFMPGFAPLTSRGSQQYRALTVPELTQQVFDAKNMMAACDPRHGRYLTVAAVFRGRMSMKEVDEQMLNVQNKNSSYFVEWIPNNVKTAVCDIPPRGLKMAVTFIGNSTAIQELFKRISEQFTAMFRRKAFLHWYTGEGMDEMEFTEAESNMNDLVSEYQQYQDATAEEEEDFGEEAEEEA
Procedure: (§3) The protein sequence of human αI-tubulin is given by UniProtKB accession number Q71U36 (gene name TUBA1A), the protein sequence of human βI-tubulin is given by UniProtKB accession number P07437 (gene name TUBB) and that of human βIII-tubulin is given by UniProtKB accession number Q13509 (gene name TUBB3). The cloning work for αI- and βI-tubulin was performed and reported previously. For the βIII human tubulin protein, the sequence was converted into DNA sequences with codons optimized for production in Escherichia coli, and for purification purposes, a His-tag was added at the N-terminus. The βIII-tubulin gene was inserted into a pET15b vector between the XhoI and NdeI restriction sites. The correct sequence, insertion, and orientation of the tubulin constructs were verified by DNA sequencing. Recombinant proteins were expressed in E. coli BL21 (DE3) host cells in LB medium supplemented with 100 μg/mL ampicillin. The cultures were grown at 37°C until an OD600 = 0.8 was reached, and the cells were induced with 1.0 mM isopropyl b-D-1-thiogalactopyranoside (IPTG) for 18 h at 25°C. After induction, the cells were harvested by centrifugation (6000 × g for 20 min at 4°C in SLC-6000 evolution sorvall rotor). The three variants of the tubulin protein were isolated from the inclusion bodies. […]

[5] = molecular target: T2, αI,βIII-tubulin (Homo sapiens, UniProt Q13509+Q71U36); experiment: Tryptophan fluorescence quenching binding assay, recombinant αI,βIII-tubulin heterodimer; details: dissociation constant, calculated
T2 construct: His-tag (N); made in house; host or cells: E. coli BL21 (DE3)
T2 sequence (Q71U36 whole entry): as the sequence (Q71U36 whole entry) above
T2 sequence (Q13509 whole entry): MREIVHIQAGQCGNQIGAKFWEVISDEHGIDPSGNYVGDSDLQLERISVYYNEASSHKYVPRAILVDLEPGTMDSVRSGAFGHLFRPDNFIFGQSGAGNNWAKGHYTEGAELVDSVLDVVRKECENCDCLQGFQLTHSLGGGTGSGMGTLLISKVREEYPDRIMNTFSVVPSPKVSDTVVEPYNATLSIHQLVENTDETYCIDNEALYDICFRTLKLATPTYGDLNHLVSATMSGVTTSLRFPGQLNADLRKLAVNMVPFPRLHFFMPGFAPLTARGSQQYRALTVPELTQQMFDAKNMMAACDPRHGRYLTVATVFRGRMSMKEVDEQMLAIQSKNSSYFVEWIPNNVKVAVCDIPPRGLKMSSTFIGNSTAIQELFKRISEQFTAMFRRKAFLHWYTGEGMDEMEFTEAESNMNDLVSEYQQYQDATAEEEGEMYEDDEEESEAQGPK
Procedure: as §3

[6] = molecular target: Porcine brain tubulin (unfractionated); experiment: Tryptophan fluorescence quenching binding assay, porcine brain tubulin; details: dissociation constant, calculated
[7] = molecular target: T3, βI,βI-tubulin (Homo sapiens, UniProt P07437); experiment: Tryptophan fluorescence quenching binding assay, recombinant βI,βI-tubulin homodimer; details: dissociation constant, calculated
T3 construct: made in house; host or cells: E. coli BL21 (DE3)
T3 sequence (P07437 whole entry): as the sequence (P07437 whole entry) above
Procedure: as §3

| IC50 [1] [µM] | IC50 [3] [µM] | Kd [4] [µM] | Kd [5] [µM] | Kd [6] [µM] | Kd [7] [µM] | SMILES | Effect on MT polymerization [2] |
| --- | --- | --- | --- | --- | --- | --- | --- |
| ~40 | ~64 |  |  |  |  | COc1ccc2c(c1OC)C(=O)O/C2=C\c1ccc2c(c1)OCO2 [Compound 8, (Z)-3-(benzo[d][1,3]dioxol-5-ylmethylene)-6,7-dimethoxyisobenzofuran-1(3H)-one] | destabilize MT |
| ~100 | ~100 | 293 | 289 | 265 | 426 | COc1ccc2c(c1OC)C(=O)O[C@@H]2[C@H]1c2c(cc3c(c2OC)OCO3)CCN1C [Noscapine] | stabilize MT |
